Columns and labels:
human LPA1 receptor = target: T1, human LPA1 receptor (Homo sapiens, UniProt Q92633); test: Binding test of GTPγS to LPA1 receptor; type: biochemical; conditions: membrane fraction of RH 7777 cells expressed with human LPA1 receptor; LPA 100 nM; read-out: IC50: concentration of the test compound which inhibits the binding of LPA1 receptor and [35S]GTPγS by 50%
T1 construct: purchased ChanTest A324; host or cells: RH 7777 cells (recombinant expression; membrane fraction)
Experimental: Binding test of GTPγS to LPA1 receptor
5 μg of the membrane fraction of RH 7777 cells expressed with human LPA1 receptor (A324, ChanTest) was suspended in a reaction buffer (20 mM HEPES, 100 mM NaCl, 10 mM MgCl2, 10 μM GDP, 5 μg saponin, 0.2% BSA, 0.1 nM [^35S]GTPγS (NEG030X, Perkin Elmer), pH 7.4), and the test compound dissolved in DMSO in various concentrations was added. After preincubation at 30° C. for 15 minutes, LPA (L7260, Sigma, the final concentration of 100 nM) was added, and the suspension was incubated at 30° C. for 30 minutes. The membrane fraction was collected onto a glass fiber filter (GF/B, Whatman) by using a cell harvester (M30, Brandel), and washed with a 10 mM phosphate buffer (pH 7.4). The radioactivity of the membrane fraction was measured using a liquid scintillation analyzer (2900TR, Packard) and the concentration of the test compound which inhibits the binding of LPA1 receptor and [^35S]GTPγS by 50%, (1050) was determined by non-linear regression analysis using EXSAS (version 7.6.0, Arm Systex).

[1] = system: A2058 human melanoma cells; test: Cell migration test (LPA-induced, Chemo-Tx); type: cell-based; conditions: LPA 100 nM, 3 hours, read-out: IC50: concentration of the test compound which inhibits the cell migration activity of LPA by 50%
Experimental: The cell migration test was carried out using Chemo-Tx (registered trademark) (116-8, Neuro Probe). A2058 human melanoma cells (obtained from European Collection of Cell Culture) were cultured in a serum-free EMEM medium for 24 hours, and then re-suspended in a 0.1% BSA-containing DMEM medium to obtain a cell suspension. The test compound dissolved in DMSO in various concentration was each added to the cell suspension, and the suspension was cultured at 37° C. for 15 minutes (the final DMSO concentration of 0.5%). LPA dissolved in a 0.1% BSA-containing DMEM medium (the final concentration of 100 nM) was added to Chemo-Tx 96 well plate, and a Chemo-Tx filter which had been coated with 0.001% Fibronectin on the both surfaces was put on the plate. The suspension of cultured cells (25,000 cells) was added onto the upper surface of the filter and further cultured at 37° C. for 3 hours, and the cells on the upper surface of the filter were removed. After the filter was removed and dried, the cells which had migrated to the lower surface of the filter were stained using Diff-Quik stain (16920, Sysmex). The absorbance of the filter (570 nm) was measured and the concentration of the test compound which inhibits the cell migration activity of LPA by 50%, (1050) was determined by non-linear regression analysis using EXSAS (version 7.6.0, Arm Systex).

[2] = system: LPA-induced histamine release; test: LPA-induced histamine release test in mouse; type: in vivo; conditions: male CD1 mice; oral dose of 10 mg/kg; LPA 300 μg/mouse via tail vein 4 hours after administration; blood 2 minutes after LPA; read-out: efficacy rate (rate of individuals which showed the inhibition rate of 80% or more of plasma histamine)
Experimental: LPA-Induced Histamine Release Test in Mouse
LPA-induced histamine release test in mouse was carried out according to a method by Swaney et al. (The Journal of Pharmacology and Experimental Therapeutics, 336 (2011), pages 693-700). The test compound was suspended in 0.5% methylcellulose solution (133-14255, Wako), and orally administered to male CD1 mice (body weight: 30 to 40 g, supplied by Charles River Laboratories Japan) at a dose of 10 mL/kg. 4 hours after administration, LPA (857130P, Avanti) dissolved in a 0.1% BSA-containing PBS was administered via the tail vein (300 μg/mouse). Immediately, the mouse was anesthetized with isoflurane, and blood was collected via a vein 2 minutes after the administration of LPA. The blood was put into a test tube containing EDTA, and centrifuged at 4° C., 2,000×g, for 10 minutes to obtain the plasma.
The histamine concentration in the plasma was measured by EIA kit (62HTMPEB, Cisbio Bioassays).

T1 sequence (Q92633 whole entry): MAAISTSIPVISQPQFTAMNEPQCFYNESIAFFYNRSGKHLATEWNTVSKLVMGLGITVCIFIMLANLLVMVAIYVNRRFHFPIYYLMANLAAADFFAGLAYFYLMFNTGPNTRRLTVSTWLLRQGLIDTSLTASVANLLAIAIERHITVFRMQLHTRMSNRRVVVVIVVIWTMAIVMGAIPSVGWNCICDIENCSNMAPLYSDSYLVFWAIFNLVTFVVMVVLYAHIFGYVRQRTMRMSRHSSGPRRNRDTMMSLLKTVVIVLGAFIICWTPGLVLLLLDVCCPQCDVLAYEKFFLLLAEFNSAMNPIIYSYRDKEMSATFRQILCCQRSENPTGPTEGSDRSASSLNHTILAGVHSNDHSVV

| SMILES | IC50 (human LPA1 receptor) [µM] | IC50 [1] [µM] | responders at 10 mg/kg [2] [%] |
| --- | --- | --- | --- |
| CC(OC(=O)Nc1cc(Br)sc1-c1ccc(-c2ccc(C3(C(=O)O)CC3)cc2)cc1)c1ccccc1Cl (racemic) [I-11, (RS)-1-{4′-[5-Bromo-3-({[1-(2-chlorophenyl)ethoxy]carbonyl}amino)thiophen-2-yl]-[1,1′-biphenyl]-4-yl}cyclopropanecarboxylic acid] | ≤ 0.2 | – | – |
| CC(OC(=O)Nc1cc(Cl)sc1-c1ccc(-c2ccc(C3(C(=O)O)CC3)cc2)cc1)c1ccccc1Cl (racemic) [I-51, (RS)-1-{4′-[5-Chloro-3-({[1-(2-chlorophenyl)ethoxy]carbonyl}amino)thiophen-2-yl]-[1,1′-biphenyl]-4-yl}cyclopropanecarboxylic acid] | ≤ 0.2 | ≤ 0.2 | – |
| C[C@@H](OC(=O)Nc1cc(Cl)sc1-c1ccc(-c2ccc(C3(C(=O)O)CC3)cc2)cc1)c1ccccc1 [I-24, (R)-1-[4′-(5-Chloro-3-{[(1-phenylethoxy)carbonyl]amino}thiophen-2-yl)-[1,1′-biphenyl]-4-yl]cyclopropanecarboxylic acid] | ≤ 0.2 | ≤ 0.2 | ≥ 50 |
| C[C@@H](OC(=O)Nc1cc(Cl)sc1-c1ccc(-c2ccc(C3(C(=O)O)CC3)cc2)cc1)c1ccccc1F [I-28, (R)-1-{4′-[5-Chloro-3-({[1-(2-fluorophenyl)ethoxy]carbonyl}amino)thiophen-2-yl]-[1,1′-biphenyl]-4-yl}cyclopropanecarboxylic acid] | ≤ 0.2 | ≤ 0.2 | ≥ 50 |
| C[C@@H](OC(=O)Nc1cc(Cl)sc1-c1ccc(-c2ccc(C3(C(=O)O)CC3)cc2)cc1)c1cccc(F)c1 [I-38, (R)-1-{4′-[5-Chloro-3-({[1-(3-fluorophenyl)ethoxy]carbonyl}amino)thiophen-2-yl]-[1,1′-biphenyl]-4-yl}cyclopropanecarboxylic acid] | ≤ 0.2 | ≤ 0.2 | ≥ 50 |
| C[C@@H](OC(=O)Nc1cc(Cl)sc1-c1ccc(-c2ccc(C3(C(=O)O)CC3)cc2)cc1)c1ccc(F)cc1 [I-42, (R)-1-{4′-[5-Chloro-3-({[1-(4-fluorophenyl)ethoxy]carbonyl}amino)thiophen-2-yl]-[1,1′-biphenyl]-4-yl}cyclopropanecarboxylic acid] | ≤ 0.2 | ≤ 0.2 | ≥ 50 |
| C[C@@H](OC(=O)Nc1cc(Cl)sc1-c1ccc(-c2ccc(C3(C(=O)O)CC3)cc2)cc1)c1ccc(F)cc1Cl [I-76, (R)-1-{4′-[5-Chloro-3-({[1-(2-chloro-4-fluorophenyl)ethoxy]carbonyl}amino)thiophen-2-yl]-[1,1′-biphenyl]-4-yl}cyclopropanecarboxylic acid] | ≤ 0.2 | ≤ 0.2 | – |
| C[C@@H](OC(=O)Nc1cc(F)sc1-c1ccc(-c2ccc(C3(C(=O)O)CC3)cc2)cc1)c1ccc(F)cc1F [I-140, (R)-1-{4′-[3-({[1-(2,4-Difluorophenyl)ethoxy]carbonyl}amino)-5-fluorothiophen-2-yl]-[1,1′-biphenyl]-4-yl}cyclopropanecarboxylic acid] | ≤ 0.2 | ≤ 0.2 | – |
| COc1cc(-c2sc(F)cc2NC(=O)O[C@H](C)c2ccccc2F)ccc1-c1ccc(C2(C(=O)O)CC2)cc1 [I-424, (R)-1-{4′-[5-Fluoro-3-({[1-(2-fluorophenyl)ethoxy]carbonyl}amino)thiophen-2-yl]-2′-methoxy-[1,1′-biphenyl]-4-yl}cyclopropanecarboxylic acid] | – | ≤ 0.2 | ≥ 50 |
| COc1cc(-c2sc(F)cc2NC(=O)O[C@H](C)c2cccc(F)c2)ccc1-c1ccc(C2(C(=O)O)CC2)cc1 [I-428, (R)-1-{4′-[5-Fluoro-3-({[1-(3-fluorophenyl)ethoxy]carbonyl}amino)thiophen-2-yl]-2′-methoxy-[1,1′-biphenyl]-4-yl}cyclopropanecarboxylic acid] | – | ≤ 0.2 | ≥ 50 |
| COc1cc(-c2sc(F)cc2NC(=O)O[C@H](C)c2ccc(F)cc2)ccc1-c1ccc(C2(C(=O)O)CC2)cc1 [I-432, (R)-1-{4′-[5-Fluoro-3-({[1-(4-fluorophenyl)ethoxy]carbonyl}amino)thiophen-2-yl]-2′-methoxy-[1,1′-biphenyl]-4-yl}cyclopropanecarboxylic acid] | – | ≤ 0.2 | ≥ 50 |
| COc1cc(-c2sc(F)cc2NC(=O)O[C@H](C)c2ccccc2Cl)ccc1-c1ccc(C2(C(=O)O)CC2)cc1 [I-442, (R)-1-{4′-[3-({[1-(2-Chlorophenyl)ethoxy]carbonyl}amino)-5-fluorothiophen-2-yl]-2′-methoxy-[1,1′-biphenyl]-4-yl}cyclopropanecarboxylic acid] | – | ≤ 0.2 | ≥ 50 |
| COc1cc(-c2sc(F)cc2NC(=O)O[C@H](C)c2ccccc2C)ccc1-c1ccc(C2(C(=O)O)CC2)cc1 [I-450, (R)-1-{4′-[5-Fluoro-3-({[1-(o-tolyl)ethoxy]carbonyl}amino)thiophen-2-yl]-2′-methoxy-[1,1′-biphenyl]-4-yl}cyclopropanecarboxylic acid] | – | ≤ 0.2 | ≥ 50 |
| COc1cc(-c2sc(F)cc2NC(=O)O[C@H](C)c2cc(F)ccc2F)ccc1-c1ccc(C2(C(=O)O)CC2)cc1 [I-458, (R)-1-{4′-[3-({[1-(2,5-Difluorophenyl)ethoxy]carbonyl}amino)-5-fluorothiophen-2-yl]-2′-methoxy-[1,1′-biphenyl]-4-yl}cyclopropanecarboxylic acid] | – | ≤ 0.2 | ≥ 50 |
| C[C@@H](OC(=O)Nc1cc(Cl)sc1-c1ccc(-c2ccc(C3(C(=O)O)CC3)cc2)cc1)c1ccsc1 [I-596, (R)-1-{4′-[5-Chloro-3-({[1-(thiophen-3-yl)ethoxy]carbonyl}amino)thiophen-2-yl]-[1,1′-biphenyl]-4-yl}cyclopropanecarboxylic acid] | – | ≤ 0.2 | ≥ 50 |
| Cc1cscc1[C@@H](C)OC(=O)Nc1cc(Cl)sc1-c1ccc(-c2ccc(C3(C(=O)O)CC3)cc2)cc1 [I-606, (R)-1-{4′-[5-Chloro-3-({[1-(4-methylthiophen-3-yl)ethoxy]carbonyl}amino)thiophen-2-yl]-[1,1′-biphenyl]-4-yl}cyclopropanecarboxylic acid] | – | ≤ 0.2 | ≥ 50 |
| C[C@@H](OC(=O)Nc1cc(F)sc1-c1ccc(-c2ccc(C3(C(=O)O)CC3)cc2)cc1)c1ccsc1 [I-640, (R)-1-{4′-[5-Fluoro-3-({[1-(thiophen-3-yl)ethoxy]carbonyl}amino)thiophen-2-yl]-[1,1′-biphenyl]-4-yl}cyclopropanecarboxylic acid] | – | ≤ 0.2 | ≥ 50 |
| Cc1cscc1[C@@H](C)OC(=O)Nc1cc(F)sc1-c1ccc(-c2ccc(C3(C(=O)O)CC3)cc2)cc1 [I-650, (R)-1-{4′-[5-Fluoro-3-({[1-(4-methylthiophen-3-yl)ethoxy]carbonyl}amino)thiophen-2-yl]-[1,1′-biphenyl]-4-yl}cyclopropanecarboxylic acid] | – | ≤ 0.2 | ≥ 50 |
| COc1cc(-c2sc(Cl)cc2NC(=O)O[C@H](C)c2ccsc2)ccc1-c1ccc(C2(C(=O)O)CC2)cc1 [I-780, (R)-1-{4′-[5-Chloro-3-({[1-(thiophen-3-yl)ethoxy]carbonyl}amino)thiophen-2-yl]-2′-methoxy-[1,1′-biphenyl]-4-yl}cyclopropanecarboxylic acid] | – | ≤ 0.2 | ≥ 50 |
